From US20100267774A1, “P38 MAP KINASE INHIBITORS” (CHROMA THERAPEUTICS LTD., priority 2007, published 2010)
pIC50: −log10 of the molar value. Like-named read-outs stand apart in the source and are kept apart here.

How the values were obtained:
[1] = system: phosphorylation of MAPKAP-2 in U937 cells; test: Cellular assay for the phosphorylation of MAPKAP-2 by p38 in U937 cells; format: cell-based; details: Homo sapiens, U-937; macrophage cell line U937; anisomycin 10 μM; read-out: Inhibition of phosphorylation of MAPKAP-2 in U937 cells (IC50)
Description: U937 or HUT78 cells were plated in RPMI 1640, and were incubated at 37° C., 5% CO2 for 18 hours. 10 mM stocks of compounds were diluted media/0.1% DMSO to give a log or semi-log dilution series. The wells for ‘no treatment’ and ‘anisomycin’ were treated with 0.1% DMSO only. The cells were incubated at 37° C., 5% CO2 for a further 4 hours. Anisomycin was added to all wells except ‘no treatment’ at a final concentration of 10 μM. The cells were incubated at 37° C., 5% CO2 for 30 minutes before harvest. Plates were stood on ice whilst harvesting, and all the following steps were carried out at 4° C. The cells were pelleted at 1000 rpm for 10 minutes at 4° C., the media aspirated, and the pellet washed with cold PBS. The pellets were lysed in 120 μl of SDS lysis buffer (62.5 mM Tris, pH 6.8, 2% SDS, 10% glycerol, 50 mM DTT, with protease inhibitors and phosphatase inhibitors added according to the manufacturers' recommendations). […]
In cells, p38 activity leads to the phosphorylation of the protein MAPKAP-2 and thus one method to assess the inhibition of p38 inside cells is to look at the decrease in the levels of phosphorylated MAPKAP-2. Table 1 lists the IC50s as measured by the level of MAPKAP-2 phosphorylation in a macrophage cell line (U937) and non-macrophage cell line (HUT78). […]

[2] = target: T1, p38 MAP Kinase a (Homo sapiens, UniProt Q16539); test: p38 MAP Kinase activity, radiometric filter-binding assay (Upstate); format: biochemical; details: for IC50: read-out: Inhibition of P38α (IC50 nM); for pIC50: IC50 range, read-out: Inhibitor activity versus p38 MAPKa
T1 construct: purchased Upstate (Dundee UK)
Description: The ability of compounds to inhibit p38 MAP a Kinase activity was measured in an assay performed by Upstate (Dundee UK). In a final reaction volume of 25 μL, p38 MAP Kinase a (5-10 mU) is incubated with 25 mM Tris pH 7.5, 0.002 mMEGTA, 0.33 mg/mL myelin basic protein, 10 mM MgAcetate and [g-33P-ATP] (specific activity approx. 500 cpm/pmol, concentration as required). The reaction is initiated by the addition of the MgATP mix. After incubation for 40 minutes at room temperature, the reaction is stopped by the addition of 5 μL of a 3% phosphoric acid solution. 10 μL of the reaction is then spotted onto a P30 filtermat and washed three times for 5 minutes in 75 mM phosphoric acid and once in methanol prior to drying and scintillation counting.
Duplicate data points are generated from a 1/3 log dilution series of a stock solution in DMSO. Nine dilutions steps are made from a top concentration of 10 μM, and a ‘no compound’ blank is included. The standard radiometric filter-binding assay is performed at an ATP concentration at, or close to, the Km. Data from scintillation counts are collected and subjected to free-fit analysis by Prism software. From the curve generated, the concentration giving 50% inhibition is determined and reported.

[3] = system: phosphorylation of MAPKAP-2 in HUT 78 cells; test: Cellular assay for the phosphorylation of MAPKAP-2 by p38 in HUT 78 cells; format: cell-based; details: for pIC50: Homo sapiens, HuT78, non-macrophage cell line HUT 78, anisomycin 10 μM, read-out: Inhibition of phosphorylation of MAPKAP-2 in HUT 78 cells (IC50); for Ratio IC50s in HUT 78 to U937 cells: macrophage selectivity
Description: U937 or HUT78 cells were plated in RPMI 1640, and were incubated at 37° C., 5% CO2 for 18 hours. 10 mM stocks of compounds were diluted media/0.1% DMSO to give a log or semi-log dilution series. The wells for ‘no treatment’ and ‘anisomycin’ were treated with 0.1% DMSO only. The cells were incubated at 37° C., 5% CO2 for a further 4 hours. Anisomycin was added to all wells except ‘no treatment’ at a final concentration of 10 μM. The cells were incubated at 37° C., 5% CO2 for 30 minutes before harvest. Plates were stood on ice whilst harvesting, and all the following steps were carried out at 4° C. The cells were pelleted at 1000 rpm for 10 minutes at 4° C., the media aspirated, and the pellet washed with cold PBS. The pellets were lysed in 120 μl of SDS lysis buffer (62.5 mM Tris, pH 6.8, 2% SDS, 10% glycerol, 50 mM DTT, with protease inhibitors and phosphatase inhibitors added according to the manufacturers' recommendations). After 30 minutes on ice, the samples were sonicated for 5 seconds before centrifugation at 13,000 rpm 4° C. for 10 minutes to remove cell debris. 10 μl of the resulting gel samples were loaded per lane on NOVEX 4-12% Bis-Tris MOPS gels. Membranes from western transfer of gels were blotted with anti-phospho MAPKAP-2, anti-phospho HSP27 and anti-GAPDH according to the manufacturers' instructions. Signal was visualised using HRP-linked anti-rabbit or anti-mouse antibodies, ECL reagent and ECL film. IC50 values for the various compounds were visualised from the resulting photographic images, using both band-shift and signal intensity.
In cells, p38 activity leads to the phosphorylation of the protein MAPKAP-2 and thus one method to assess the inhibition of p38 inside cells is to look at the decrease in the levels of phosphorylated MAPKAP-2. Table 1 lists the IC50s as measured by the level of MAPKAP-2 phosphorylation in a macrophage cell line (U937) and non-macrophage cell line (HUT78). […] In contrast, example 33 that has an esterase motif that would be expected to confer macrophage selectivity, has an activity in the macrophage cell line (U937) which is 100 fold greater than in the non-macrophage cell line (HUT 78).

[4] = system: THP-1 TNFα release; test: LPS-stimulation of THP-1 cells, TNF-α release by ELISA; format: cell-based; details: Homo sapiens, THP-1, 6 h; read-out: Inhibitor activity versus THP-1 TNFα release
Description: THP-1 cells were plated in 100 μl at a density of 4×10^4 cells/well in V-bottomed 96 well tissue culture treated plates and incubated at 37° C. in 5% CO2 for 16 hrs. 2 hrs after the addition of the inhibitor in 100 μl of tissue culture media, the cells were stimulated with LPS (E coli strain 005:B5, Sigma) at a final concentration of 1 μg/ml and incubated at 37° C. in 5% CO2 for 6 hrs. TNF-α levels were measured from cell-free supernatants by sandwich ELISA (R&D Systems #QTA00B).

[5] = compound as such (Example 33: Ester)

T1 sequence (Q16539 whole entry): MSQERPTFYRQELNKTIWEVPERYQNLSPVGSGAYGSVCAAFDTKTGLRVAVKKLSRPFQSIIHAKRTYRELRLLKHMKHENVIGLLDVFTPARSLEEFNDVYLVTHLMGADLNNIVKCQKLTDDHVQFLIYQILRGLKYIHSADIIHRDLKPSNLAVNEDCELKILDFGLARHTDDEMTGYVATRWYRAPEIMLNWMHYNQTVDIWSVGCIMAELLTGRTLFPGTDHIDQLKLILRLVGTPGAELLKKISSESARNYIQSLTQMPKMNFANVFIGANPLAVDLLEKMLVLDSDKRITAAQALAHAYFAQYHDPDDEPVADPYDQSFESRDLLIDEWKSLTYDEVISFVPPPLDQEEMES

Nc1c(C(=O)c2ccc(F)cc2F)ccc(=O)n1-c1c(F)cccc1F [Compound I, reference compound]
pIC50 [1]: 8.05
IC50 [2, 5]: 47 nM
pIC50 [3]: 8.00
Ratio IC50s in HUT 78 to U937 cells ([3]; MAPKAP-2 phosphorylation): 1.1

CC(C)C[C@H](NCCc1cc(F)c(-n2c(N)c(C(=O)c3ccc(F)cc3F)ccc2=O)c(F)c1)C(=O)OC1CCCC1 [Example 33, cyclopentyl N-(2-{4-[6-amino-5-(2,4-difluorobenzoyl)-2-oxopyridin-1(2H)-yl]-3,5-difluorophenyl}ethyl)-L-leucinate]
pIC50 [1]: 9.15
IC50 ([2]; Acid (carboxylic acid of the ester)): 0.5 nM
pIC50 [2]: 6.00 to 7.00
IC50 [2, 5]: 100 nM
pIC50 [3]: 7.14
activity in the macrophage cell line (U937) greater than in the non-macrophage cell line (HUT 78) ([3]; MAPKAP-2 phosphorylation): 100 fold
Ratio IC50s in HUT 78 to U937 cells ([3]; MAPKAP-2 phosphorylation): 112
pIC50 [4]: > 7.00

CC(C)C[C@H](NCCc1ccc(-n2c(N)c(C(=O)c3ccc(F)cc3F)ccc2=O)s1)C(=O)OC1CCCC1 [Example 49, Cyclopentyl N-(2-{5-[6-amino-5-(2,4-difluorobenzoyl)-2-oxopyridin-1(2H)-yl]-2-thienyl}ethyl)-L-leucinate]
pIC50 [2]: 6.00 to 7.00
pIC50 [4]: > 7.00

CC(C)C[C@H](NCCc1ccc(-n2c(N)c(C(=O)c3ccc(F)cc3F)ccc2=O)cc1)C(=O)O[C@@H]1CC(C)CC[C@H]1C(C)C (stereo in doubt) [Example 13, (1R,2S,5S)-2-Isopropyl-5-methylcyclohexyl N-(2-{4-[6-amino-5-(2,4-difluorobenzoyl)-2-oxopyridin-1(2H)-yl]phenyl}ethyl)-L-leucinate]
pIC50 [2]: < 6.00
pIC50 [4]: > 7.00

CC(C)C[C@@H](NCCc1ccc(-n2c(N)c(C(=O)c3ccc(F)cc3F)ccc2=O)cc1)C(=O)OC1CCCC1 [Example 9, Cyclopentyl N-[2-(4-{6-amino-5-[(2,4-difluorophenyl)carbonyl]-2-oxopyridin-1(2H)-yl}phenyl)ethyl]-D-leucinate]
pIC50 [2]: 6.00 to 7.00
pIC50 [4]: 6.00 to 7.00

CC(C)(C)OC[C@H](NCCc1cc(F)c(-n2c(N)c(C(=O)c3ccc(F)cc3)ccc2=O)c(F)c1)C(=O)OC1CCCC1 [Example 31, Cyclopentyl N-(2-{4-[6-amino-5-(4-fluorobenzoyl)-2-oxopyridin-1(2H)-yl]-3,5-difluorophenyl}ethyl)-O-tert-butyl-L-serinate]
pIC50 [2]: 6.00 to 7.00
pIC50 [4]: > 7.00

CC(C)(C)OC[C@H](NCCc1cc(F)c(-n2c(N)c(C(=O)c3ccc(F)cc3F)ccc2=O)c(F)c1)C(=O)OC1CCCC1 [Example 40, Cyclopentyl N-(2-{4-[6-amino-5-(2,4-difluorobenzoyl)-2-oxopyridin-1(2H)-yl]-3,5-difluorophenyl}ethyl)-O-tert-butyl-L-serinate]
pIC50 [2]: > 7.00
pIC50 [4]: > 7.00

CC[C@H](C)[C@H](NCCc1ccc(-n2c(N)c(C(=O)c3ccc(F)cc3F)ccc2=O)cc1)C(=O)OC1CCCC1 [Example 18, Cyclopentyl N-[2-(4-{6-amino-5-[(2,4-difluorophenyl)carbonyl]-2-oxopyridin-1(2H)-yl}phenyl)ethyl]-L-isoleucinate]
pIC50 [2]: 6.00 to 7.00
pIC50 [4]: > 7.00

CC(C)(C)[C@H](NCCc1ccc(-n2c(N)c(C(=O)c3ccc(F)cc3F)ccc2=O)cc1)C(=O)OC1CCCC1 [Example 7, Cyclopentyl N-[2-(4-{6-amino-5-[(2,4-difluorophenyl)carbonyl]-2-oxopyridin-1(2H)-yl}phenyl)ethyl]-3-methyl-L-valinate]
pIC50 [2]: 6.00 to 7.00
pIC50 [4]: < 6.00

CC(C)(C)OC[C@H](NCCc1ccc(-n2c(N)c(C(=O)c3ccc(F)cc3F)ccc2=O)cc1)C(=O)OC1CCCC1 [Example 11, Cyclopentyl N-[2-(4-{6-amino-5-[(2,4-difluorophenyl)carbonyl]-2-oxopyridin-1(2H)-yl}phenyl)ethyl]-O-tert-butyl-L-serinate]
pIC50 [2]: 6.00 to 7.00
pIC50 [4]: > 7.00

C[C@@H](O)[C@H](NCCc1cc(F)c(-n2c(N)c(C(=O)c3ccc(F)cc3F)ccc2=O)c(F)c1)C(=O)OC1CCCC1 [Example 45, Cyclopentyl N-[2-(4-{6-amino-5-[(2,4-difluorophenyl)carbonyl]-2-oxopyridin-1(2H)-yl}-3,5-difluorophenyl)ethyl]-L-threoninate]
pIC50 [2]: > 7.00
pIC50 [4]: > 7.00

Nc1c(C(=O)c2ccc(F)cc2F)ccc(=O)n1-c1ccc(CCN[C@@H](Cc2ccccc2)C(=O)OC2CCCC2)cc1 [Example 22, Cyclopentyl N-[2-(4-{6-amino-5-[(2,4-difluorophenyl)carbonyl]-2-oxopyridin-1(2H)-yl}phenyl)ethyl]-L-phenylalaninate]
pIC50 [2]: 6.00 to 7.00
pIC50 [4]: > 7.00

CC(C)(C)OC(=O)[C@@H](NCCc1cc(F)c(-n2c(N)c(C(=O)c3ccc(F)cc3)ccc2=O)c(F)c1)c1ccccc1 [Example 27, tert-butyl (2S)-[(2-{4-[6-amino-5-(4-fluorobenzoyl)-2-oxopyridin-1(2H)-yl]-3,5-difluorophenyl}ethyl)amino](phenyl)acetate]
pIC50 [2]: 6.00 to 7.00
pIC50 [4]: > 7.00

CC(C)(C)OC(=O)[C@@H](NCCc1ccc(-n2c(N)c(C(=O)c3ccc(F)cc3F)ccc2=O)cc1)C(C)(C)C [Example 8, tert-butyl N-[2-(4-{6-amino-5-[(2,4-difluorophenyl)carbonyl]-2-oxopyridin-1(2H)-yl}phenyl)ethyl]-3-methyl-L-valinate]
pIC50 [2]: 6.00 to 7.00
pIC50 [4]: < 6.00

CC(C)C[C@@H](NCCc1cc(F)c(-n2c(N)c(C(=O)c3ccc(F)cc3F)ccc2=O)c(F)c1)C(=O)OC(C)(C)C [Example 39, tert-butyl N-(2-{4-[6-amino-5-(2,4-difluorobenzoyl)-2-oxopyridin-1(2H)-yl]-3,5-difluorophenyl}ethyl)-D-leucinate]
pIC50 [2]: 6.00 to 7.00
pIC50 [4]: > 7.00

Nc1c(C(=O)c2ccc(F)cc2)ccc(=O)n1-c1c(F)cc(CCN[C@H](C(=O)OC2CCCC2)c2ccccc2)cc1F [Example 26, Cyclopentyl (2S)-[(2-{-4-[6-amino-5-(4-fluorobenzoyl)-2-oxopyridin-1(2H)-yl]-3,5-difluorophenyl}ethyl)amino](phenyl)acetate]
pIC50 [2]: 6.00 to 7.00
pIC50 [4]: > 7.00

CC(C)C[C@@H](NCCc1cc(F)c(-n2c(N)c(C(=O)c3ccc(F)cc3)ccc2=O)c(F)c1)C(=O)OC1CCCC1 [Example 29, Cyclopentyl N-(2-{4-[6-amino-5-(4-fluorobenzoyl)-2-oxopyridin-1(2H)-yl]-3,5-difluorophenyl}ethyl)-D-leucinate]
pIC50 [2]: 6.00 to 7.00
pIC50 [4]: > 7.00
